Test results taken from patent publication USRE47221E1, “Tricyclic compounds” (AbbVie Inc., priority 2009, dated 2019).

Molecular target: T1, Jak3 (Homo sapiens, UniProt P52333)
T1 construct: Jak3 enzyme (aa 811-1103); expressed in SF9 cells as a GST fusion; GST; made in house; host or cells: SF9 insect cells
Test: Jak3 enzyme data for selected compounds
Assay type: biochemical

T1 sequence (P52333 811-1103): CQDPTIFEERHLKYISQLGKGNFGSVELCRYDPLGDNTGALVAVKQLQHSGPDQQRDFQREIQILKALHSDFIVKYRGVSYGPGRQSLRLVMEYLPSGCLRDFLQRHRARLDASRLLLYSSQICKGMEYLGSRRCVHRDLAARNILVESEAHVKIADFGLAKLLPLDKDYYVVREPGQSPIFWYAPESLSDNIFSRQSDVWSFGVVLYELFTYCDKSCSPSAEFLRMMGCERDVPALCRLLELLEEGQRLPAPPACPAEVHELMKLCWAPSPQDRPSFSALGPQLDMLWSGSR

Row | SMILES | IC50 [nM]
1 | C[C@@H]1C[C@H](NS(=O)(=O)NCCO)C[C@@H]1c1cnc2cnc3[nH]ccc3n12 (single isomer, unassigned) [AA.1.81] | < 100
2 | CC[C@@H]1C[C@@H](OC2CCOCC2)C[C@@H]1c1nnc2cnc3[nH]ccc3n12 (single isomer, unassigned) [AA.1.91, 1-(2-ethyl-4-(tetrahydro-2H-pyran-4-yloxy)cyclopentyl)-6H-pyrrolo[2,3-e][1,2,4]triazolo[4,3-a]pyrazine] | 100 to 1000
3 | CC[C@@H]1C[C@H](NS(=O)(=O)c2ccc(F)c(Cl)c2)C[C@@H]1c1cnc2cnc3[nH]ccc3n12 (single isomer, unassigned) [AA.1.92, 3-chloro-N-(3-ethyl-4-(3H-imidazo[1,2-a]pyrrolo[2,3-e]pyrazin-8-yl)cyclopentyl)-4-fluorobenzenesulfonamide] | < 100
4 | C[C@H]1C[C@H](Oc2ccc(C#N)cc2)C[C@H]1c1nnc2cnc3[nH]ccc3n12 (single isomer, unassigned) [AA.1.93, 4-(3-methyl-4-(6H-pyrrolo[2,3-e][1,2,4]triazolo[4,3-a]pyrazin-1-yl)cyclopentyloxy)benzonitril] | > 1000
5 | C[C@H]1C[C@H](Oc2ccc(C#N)cc2)C[C@@H]1c1nnc2cnc3[nH]ccc3n12 (single isomer, unassigned) [AA.1.94, 4-(3-methyl-4-(6H-pyrrolo[2,3-e][1,2,4]triazolo[4,3-a]pyrazin-1-yl)cyclopentyloxy)benzonitrile] | 100 to 1000
6 | CC[C@@H]1C[C@@H](Oc2ccc(C(F)(F)F)cn2)C[C@@H]1c1nnc2cnc3[nH]ccc3n12 (single isomer, unassigned) [AA.1.95, 1-(2-ethyl-4-(5-(trifluoromethyl)pyridin-2-yloxy)cyclopentyl)-6H-pyrrolo[2,3-e][1,2,4]triazolo[4,3-a]pyrazine] | > 1000
7 | CC[C@H]1C[C@H](Oc2ccc(C(F)(F)F)cn2)C[C@H]1c1nnc2cnc3[nH]ccc3n12 (single isomer, unassigned) [AA.1.96, 1-(2-ethyl-4-(5-(trifluoromethyl)pyridin-2-yloxy)cyclopentyl)-6H-pyrrolo[2,3-e][1,2,4]triazolo[4,3-a]pyrazine] | > 1000
8 | CC[C@H]1C[C@@H](Oc2cnc(C#N)cn2)C[C@@H]1c1nnc2cnc3[nH]ccc3n12 (single isomer, unassigned) [AA.1.97, 5-(3-ethyl-4-(6H-pyrrolo[2,3-e][1,2,4]triazolo[4,3-a]pyrazin-1-yl)cyclopentyloxy)pyrazine-2-carbonitrile] | > 1000
9 | CC[C@@H]1C[C@H](Oc2cnc(C#N)cn2)C[C@H]1c1nnc2cnc3[nH]ccc3n12 (single isomer, unassigned) [AA.1.98, 5-(3-ethyl-4-(6H-pyrrolo[2,3-e][1,2,4]triazolo[4,3-a]pyrazin-1-yl)cyclopentyloxy)pyrazine-2-carbonitrile] | < 100
10 | CC[C@@H]1C[C@@H](OCc2cccc(C#N)c2)C[C@@H]1c1nnc2cnc3[nH]ccc3n12 (single isomer, unassigned) [AA.1.99, 3-((3-ethyl-4-(6H-pyrrolo[2,3-e][1,2,4]triazolo[4,3-a]pyrazin-1-yl)cyclopentyloxy)methyl)benzonitrile] | 100 to 1000
11 | CC[C@H]1C[C@H](OCc2cccc(C#N)c2)C[C@H]1c1nnc2cnc3[nH]ccc3n12 (single isomer, unassigned) [AA.1.100, 3-((3-ethyl-4-(6H-pyrrolo[2,3-e][1,2,4]triazolo[4,3-a]pyrazin-1-yl)cyclopentyloxy)methyl)benzonitrile] | > 1000
12 | CC[C@@H]1C[C@@H](OCc2ccc(C#N)cc2)C[C@@H]1c1nnc2cnc3[nH]ccc3n12 (single isomer, unassigned) [AA.1.101, 4-((3-ethyl-4-(6H-pyrrolo[2,3-e][1,2,4]triazolo[4,3-a]pyrazin-1-yl)cyclopentyloxy)methyl)benzonitrile] | < 100
13 | CC[C@H]1C[C@H](OCc2ccc(C#N)cc2)C[C@H]1c1nnc2cnc3[nH]ccc3n12 (single isomer, unassigned) [AA.1.102, 4-((3-ethyl-4-(6H-pyrrolo[2,3-e][1,2,4]triazolo[4,3-a]pyrazin-1-yl)cyclopentyloxy)methyl)benzonitrile] | > 1000
14 | CC[C@@H]1C[C@@H](Oc2ccc(C#N)c(F)c2)C[C@@H]1c1nnc2cnc3[nH]ccc3n12 (single isomer, unassigned) [AA.1.103, 4-(3-ethyl-4-(6H-pyrrolo[2,3-e][1,2,4]triazolo[4,3-a]pyrazin-1-yl)cyclopentyloxy)-2-fluorobenzonitrile] | < 100
15 | CC[C@@H]1C[C@@H](Oc2ccc(C#N)cc2F)C[C@@H]1c1nnc2cnc3[nH]ccc3n12 (single isomer, unassigned) [AA.1.104, 4-(3-ethyl-4-(6H-pyrrolo[2,3-e][1,2,4]triazolo[4,3-a]pyrazin-1-yl)cyclopentyloxy)-3-fluorobenzonitrile] | < 100
16 | CC[C@@H]1C[C@H](NS(=O)(=O)C2CC2)C[C@@H]1n1cnc2cnc3[nH]ccc3c21 (single isomer, unassigned) [Example #23] | < 100

Row | SMILES | IC50 [nM]
17 | C[C@@H]1C[C@H](NS(=O)(=O)C2CC2)C[C@@H]1c1cnc2cnc3[nH]ccc3n12 (single isomer, unassigned) [Example #24] | < 100
18 | C[C@@H]1C[C@H](NS(=O)(=O)N2CC(F)(F)C2)C[C@@H]1c1cnc2cnc3[nH]ccc3n12 (single isomer, unassigned) [Example #25] | < 100
19 | CC[C@H]1C[C@@H](OCc2ccc(OC)cc2)C[C@@H]1c1n[nH]c2cnc3[nH]ccc3c12 (single isomer, unassigned) [Example #30] | 100 to 1000
20 | CC[C@@H]1C[C@H](OCc2ccc(OC)cc2)C[C@H]1c1n[nH]c2cnc3[nH]ccc3c12 (single isomer, unassigned) [compound 31] | 100 to 1000
21 | O=C(N1CCC[C@@H](c2cnc3cnc4[nH]ccc4n23)C1)N1CCC[C@@H]1C(F)(F)F [AA.1.10, (3-(3H-imidazo[1,2-a]pyrrolo[2,3-e]pyrazin-8-yl)piperidin-1-yl)((R)-2-(trifluoromethyl)pyrrolidin-1-yl)methanone] | 100 to 1000
22 | N#C[C@H]1CCN(C(=O)N2CCC[C@@H](c3ncc4cnc5[nH]ccc5n34)C2)C1 [AA.1.12, 1-((R)-3-(6H-imidazo[1,5-a]pyrrolo[2,3-e]pyrazin-1-yl)piperidine-1-carbonyl)pyrrolidine-3-carbonitrile] | < 100
23 | CC[C@@H]1C[C@H](NS(=O)(=O)C2CC2)CN1c1cnc2cnc3[nH]ccc3n12 [D.1.25] | < 100
24 | O=S(=O)(NC12CCC(c3nnc4cnc5[nH]ccc5n34)(CC1)CC2)N1CCC1 [D.1.29] | 100 to 1000
25 | O=S(=O)(NC12CCC(c3nnc4cnc5[nH]ccc5n34)(CC1)CC2)N1CC(F)(F)C1 [D.1.30] | 100 to 1000
26 | CC1(S(=O)(=O)NC23CCC(c4nnc5cnc6[nH]ccc6n45)(CC2)CC3)CC1 [D.1.33] | > 1000
27 | O=S(=O)(NC12CCC(c3nnc4cnc5[nH]ccc5n34)(CC1)CC2)C1CCC1 [D.1.39] | 100 to 1000
28 | CC[C@@H]1C[C@H](NS(=O)(=O)C2CC2)C[C@@H]1c1nc(Br)c2cnc3[nH]ccc3n12 [D.1.45] | < 100
29 | CC[C@@H]1C[C@H](NS(=O)(=O)C2CC2)CN1c1ncc2cnc3[nH]ccc3n12 [D.1.46] | < 100
30 | C[C@@H]1C[C@H](NS(=O)(=O)C2CC2)CN1c1ncc2cnc3[nH]ccc3n12 [D.1.47] | 100 to 1000
31 | N#Cc1ccc(OCC23C4C5C2C2C3C4C52c2ncc3cnc4[nH]ccc4n23)cc1 (stereo not shown) [D.1.49] | 100 to 1000
32 | FC(F)(F)c1nc2cnc3[nH]ccc3c2n1C1CCCCC1 [D.1.52] | 100 to 1000

Continued, values first:

Row | IC50 [nM] | SMILES
33 | < 100 | CC[C@@H]1C[C@H](NS(=O)(=O)N2CC(F)(F)C2)C[C@@H]1c1cnc2cnc3[nH]ccc3n12 (single isomer, unassigned) [AA.1.79, N-(3-ethyl-4-(3H-imidazo[1,2-a]pyrrolo[2,3-e]pyrazin-8-yl)cyclopentyl)-3,3-difluoroazetidine-1-sulfonamide]
34 | > 1000 | CC[C@@H]1C[C@H](OCC2CC2)C[C@@H]1c1nnc2cnc3[nH]ccc3n12 (single isomer, unassigned) [AA.1.80, 1-(4-(cyclopropylmethoxy)-2-ethylcyclopentyl)-6H-pyrrolo[2,3-e][1,2,4]triazolo[4,3-a]pyrazine]
35 | 100 to 1000 | CC[C@@H]1C[C@@H](OCC2CC2)C[C@@H]1c1nnc2cnc3[nH]ccc3n12 (single isomer, unassigned) [AA.1.90, 1-(4-(cyclopropylmethoxy)-2-ethylcyclopentyl)-6H-pyrrolo[2,3-e][1,2,4]triazolo[4,3-a]pyrazine]
36 | > 1000 | CC[C@@H]1C[C@@H](O)C[C@@H]1c1nnc2cnc3[nH]ccc3n12 (single isomer, unassigned) [AA.1.106, 3-ethyl-4-(6H-pyrrolo[2,3-e][1,2,4]triazolo[4,3-a]pyrazin-1-yl)cyclopentanol]
37 | 100 to 1000 | CC[C@@H]1C[C@H](NS(=O)(=O)N2CCC2)C[C@@H]1c1nnc2cnc3[nH]ccc3n12 [D.1.10]
38 | 100 to 1000 | CC[C@@H]1C[C@H](NS(=O)(=O)N2CC(F)(F)C2)C[C@@H]1c1nnc2cnc3[nH]ccc3n12 [D.1.11]
39 | 100 to 1000 | CC[C@@H]1C[C@H](NS(=O)(=O)N2CCC[C@H]2C(F)(F)F)CC1c1nnc2cnc3[nH]ccc3n12 (stereo partly shown) [D.1.12]
40 | 100 to 1000 | CC[C@@H]1C[C@H](NS(=O)(=O)N2CCC(F)(F)C2)C[C@@H]1c1nnc2cnc3[nH]ccc3n12 [D.1.13]
41 | 100 to 1000 | CC[C@@H]1C[C@H](N(C)S(=O)(=O)C2CC2)C[C@@H]1c1nnc2cnc3[nH]ccc3n12 [D.1.21]
42 | 100 to 1000 | CC[C@@H]1C[C@H](N(CC2CC2)S(=O)(=O)C2CC2)C[C@@H]1c1nnc2cnc3[nH]ccc3n12 [D.1.22]
43 | 100 to 1000 | CC[C@@H]1C[C@H](NS(=O)(=O)CCC(F)(F)F)C[C@@H]1c1nnc2cnc3[nH]ccc3n12 [D.1.24]
44 | < 100 | CC[C@@H]1C[C@H](N(CCO)S(=O)(=O)C2CC2)C[C@@H]1c1nnc2cnc3[nH]ccc3n12 [D.1.31]
45 | < 100 | CC[C@@H]1C[C@H](NS(=O)(=O)C2(C)CC2)C[C@@H]1c1nnc2cnc3[nH]ccc3n12 [D.1.35]
46 | > 1000 | CC[C@@H]1C[C@H](NS(=O)(=O)N2CCN(C)CC2)C[C@@H]1c1nnc2cnc3[nH]ccc3n12 [D.1.50]
